Results taken from US20240399118A1, “INTRALUMINAL LOCAL DRUG DELIVERY” (Isola Therapeutics, Inc., priority 2023, published 2024).
Where two headings read alike, the source gives them in different places.

Legend:
[1] = cited from earlier work
porcine model = settings: pig, in vivo
Method: Animals tested were of the porcine species from the breed Yorkshire Cross. The animals underwent surgery to place two (2) CVL catheters, 1 for infusion and 1 for plasma collection. Each animal received ˜1 L of lavage solution. The animals were allowed to recover and stabilize. Once the animals were awake and mobile, the animals were infused with 50 mcg/mL for 30 minutes.

[2] = Plasma concentration of diclofenac after local lavage delivery to the lungs in a porcine model (LC/MS); type: in vivo, porcine (Yorkshire Cross)
Source text: Each animal received ˜1 L of lavage solution. The animals were allowed to recover and stabilize. […] Spectra were compared to the validated protocol and standard curve generated for the study.

In the case of `C[C@@H]1C[C@H]2[C@@H]3CCC4=CC(=O)C=C[C@]4(C)[C@@]3(F)[C@@H](O)C[C@]2(C)[C@@]1(O)C(=O)COP(=O)([O-])[O-].[Na+].[Na+]` [Dexamethasone sodium phosphate, disodium; [2-[(8S,9R,10S,11S,13S,14S,16R, 17R)-9-fluoro-11,17-dihydroxy-10,13,16-trimethyl-3-oxo-6,7,8, 11, 12, 14, 15, 16-octahydrocyclopenta[a]phenanthren-17-yl]-2-oxoethyl] phosphate], the solubility in water ([1]; water) is listed as 100 to 1000 mg/mL, the “solubility in water (in words)” value ([1]; water) is listed as “freely soluble” and the tolerability (porcine model) is listed as “well tolerated”.
In the case of `O=C(O)Cc1ccccc1Nc1c(Cl)cccc1Cl` [Diclofenac sodium], the “solubility in water (in words)” value ([1]; water at 25° C.) is given as “sparingly soluble”.
In the case of `O=C(O)Cc1ccccc1Nc1c(Cl)cccc1Cl` [Diclofenac, 2-[2-(2,6-dichloroanilino)phenyl]acetic acid], the adverse events (porcine model) is reported as “did not have any adverse events”, the clinical observations (porcine model) is reported as “no abnormal clinical observations” and the lung tissue damage (porcine model) is reported as “no signs of lung tissue damage”. The “time of peak plasma concentration post-lung infusion” value ([2]; local lung delivery at 50 mcg/mL) was 5 min, the “plasma Cmax as percent of the plasma Cmax resulting from systemic administration” value ([2]; local vs systemic administration) was “less than 0.05%” and the “Plasma Concentration (ng/mL) by Time (min): 5 min” value ([2]; swine, local lung administration 50 mcg/mL, 5 min, animal 24P0133) was 3430 ng/mL. The “Plasma Concentration (ng/mL) by Time (min): 15 min” value ([2]; swine, local lung administration 50 mcg/mL, 15 min, animal 24P0133) was 3050 ng/mL, the “Plasma Concentration (ng/mL) by Time (min): 30 min” value ([2]; swine, local lung administration 50 mcg/mL, 30 min, animal 24P0133) was 2410 ng/mL and the “Plasma Concentration (ng/mL) by Time (min): 0 min” value ([2]; swine, local lung administration 50 mcg/mL, ~1 L lavage solution, 0 min (baseline), animal 24P0133) was “BLQ”.
